Results as given in ChEMBL document CHEMBL1146191, “Synthesis and evaluation of novel 1-(2-acylhydrazinocarbonyl)-cycloalkyl carboxamides as interleukin-1beta converting enzyme (ICE) inhibitors” (Bioorg Med Chem Lett, 2006).

Tests used:
[1] = target: T1, Caspase-1 (Homo sapiens, UniProt P29466); experiment: Inhibition of ICE
T1 sequence (P29466 whole entry): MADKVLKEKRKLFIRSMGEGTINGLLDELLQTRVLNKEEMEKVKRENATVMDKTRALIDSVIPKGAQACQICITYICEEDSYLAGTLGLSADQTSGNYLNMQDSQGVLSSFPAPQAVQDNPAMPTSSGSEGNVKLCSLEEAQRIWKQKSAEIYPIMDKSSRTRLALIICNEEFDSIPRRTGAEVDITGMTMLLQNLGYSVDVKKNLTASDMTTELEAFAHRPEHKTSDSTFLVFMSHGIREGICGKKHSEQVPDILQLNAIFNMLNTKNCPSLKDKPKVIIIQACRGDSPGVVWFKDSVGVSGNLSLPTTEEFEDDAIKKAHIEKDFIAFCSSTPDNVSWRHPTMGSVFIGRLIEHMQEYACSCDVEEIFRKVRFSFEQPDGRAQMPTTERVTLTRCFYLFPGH

[2] = target: Caspase-8 (Homo sapiens, UniProt Q14790); experiment: Inhibition of caspase8
Chain of Caspase-8 (Q14790 217-374 limits assumed): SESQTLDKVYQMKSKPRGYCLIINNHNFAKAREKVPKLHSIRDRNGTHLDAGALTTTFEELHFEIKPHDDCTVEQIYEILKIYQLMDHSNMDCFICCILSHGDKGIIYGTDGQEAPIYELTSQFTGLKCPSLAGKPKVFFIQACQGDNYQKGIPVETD
Chain of Caspase-8 (Q14790 385-479 limits assumed): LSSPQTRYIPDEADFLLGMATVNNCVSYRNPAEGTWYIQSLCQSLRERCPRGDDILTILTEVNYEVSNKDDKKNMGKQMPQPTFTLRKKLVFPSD

[3] = target: T2, Caspase-3 (Homo sapiens, UniProt P42574); experiment: Inhibition of caspase3
T2 sequence (P42574 whole entry): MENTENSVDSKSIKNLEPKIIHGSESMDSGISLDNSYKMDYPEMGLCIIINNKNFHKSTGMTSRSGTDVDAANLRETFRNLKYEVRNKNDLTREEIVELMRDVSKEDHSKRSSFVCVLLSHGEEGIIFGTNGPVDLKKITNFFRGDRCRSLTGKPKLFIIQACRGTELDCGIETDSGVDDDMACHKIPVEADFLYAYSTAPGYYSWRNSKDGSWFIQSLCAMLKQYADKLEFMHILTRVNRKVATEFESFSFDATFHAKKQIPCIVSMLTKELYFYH

[4] = test system: THP-1; experiment: Inhibition of IL1-beta secretion in human THP1 cells; format: functional, cell-based

SMILES | IC50 [1] [µM] | IC50 [2] [µM] | IC50 [3] [µM] | IC50 [4] [µM]
Cc1cccc(C(=O)NNC(=O)C2(C(=O)N[C@H]3CC(=O)OC3O)Cc3ccccc3C2)c1 (stereo not given in full) | 0.43 | 3.12 | > 10 | ≥ 2.5
Cc1ccccc1C(=O)NNC(=O)C1(C(=O)N[C@H]2CC(=O)OC2O)CCC1 (stereo not given in full) | 0.31 | 0.31 | > 10 | 0.61
O=C1C[C@H](NC(=O)C2(C(=O)NNC(=O)c3cccc4ccccc34)CCCCC2)C(O)O1 (stereo not given in full) | 0.05 | 0.07 | > 10 | 0.45
COc1cccc(C(=O)NNC(=O)C2(C(=O)N[C@H]3CC(=O)OC3O)CCCCC2)c1 (stereo not given in full) | 0.24 | 1.8 | > 10 | 1.3
CCO[C@@H]1OC(=O)C[C@@H]1NC(=O)[C@@H]1CCCN2C(=O)CC[C@H](NC(=O)c3nccc4ccccc34)C(=O)N12 [PRALNACASAN] | 0.0036 | 0.04 |  | 
Cc1ccc(C(=O)NNC(=O)C2(C(=O)N[C@H]3CC(=O)OC3O)CCC2)cc1 (stereo not given in full) | 0.58 | 4.3 | > 10 | 6.9
O=C1C[C@H](NC(=O)C2(C(=O)NNC(=O)c3cccc4ccccc34)CCCC2)C(O)O1 (stereo not given in full) | 0.04 | 0.09 | > 10 | 0.48
Cc1cccc(C(=O)NNC(=O)C2(C(=O)N[C@H]3CC(=O)OC3O)CCCC2)c1 (stereo not given in full) | 0.49 | 1.2 | > 10 | 2
Cc1cccc(C(=O)NNC(=O)C2(C(=O)N[C@H]3CC(=O)OC3O)CCCCC2)c1 (stereo not given in full) | 0.43 | 3.9 | > 10 | 0.47

Now from value to compound:

IC50 [1] [µM] | IC50 [2] [µM] | IC50 [3] [µM] | IC50 [4] [µM] | SMILES
0.2 | 1.17 | > 10 | 0.55 | COc1cccc(C(=O)NNC(=O)C2(C(=O)N[C@H]3CC(=O)OC3O)CCCC2)c1 (stereo not given in full)
0.15 | 3.2 | > 10 | 0.57 | O=C1C[C@H](NC(=O)C2(C(=O)NNC(=O)c3ccc4ccccc4c3)CCCC2)C(O)O1 (stereo not given in full)
≥ 10 | 0.23 | > 10 | ≥ 2.5 | Cc1cccc(C)c1C(=O)NNC(=O)C1(C(=O)N[C@H]2CC(=O)OC2O)CCCCC1 (stereo not given in full)
0.24 | 6.3 | > 10 |  | O=C1C[C@H](NC(=O)C2(C(=O)NNC(=O)c3ccc4ccccc4c3)CCC2)C(O)O1 (stereo not given in full)
0.05 | 0.13 | > 10 | 0.47 | O=C1C[C@H](NC(=O)C2(C(=O)NNC(=O)c3cccc4ccccc34)CCC2)C(O)O1 (stereo not given in full)
0.26 | 2.2 | > 10 | 0.4 | COc1cccc(C(=O)NNC(=O)C2(C(=O)N[C@H]3CC(=O)OC3O)CCC2)c1 (stereo not given in full)
0.04 | 0.42 | > 10 | 0.69 | O=C1C[C@H](NC(=O)C2(C(=O)NNC(=O)c3cccc4ccccc34)Cc3ccccc3C2)C(O)O1 (stereo not given in full)
0.09 | 2.6 | > 10 | 0.79 | O=C1C[C@H](NC(=O)C2(C(=O)NNC(=O)c3ccc4ccccc4c3)CCCCC2)C(O)O1 (stereo not given in full)
0.15 | 2.7 | > 10 | 0.62 | Cc1cccc(C(=O)NNC(=O)C2(C(=O)N[C@H]3CC(=O)OC3O)CCC2)c1 (stereo not given in full)
0.7 | 0.3 | > 10 | ≥ 2.5 | COc1cccc(OC)c1C(=O)NNC(=O)C1(C(=O)N[C@H]2CC(=O)OC2O)CCCCC1 (stereo not given in full)
2.9 | ≥ 10 | > 10 | 6.4 | O=C1C[C@H](NC(=O)C2(C(=O)NNC(=O)c3ccc4ccccc4c3)CC2)C(O)O1 (stereo not given in full)
0.03 | 2.1 | > 10 | 0.5 | O=C1C[C@H](NC(=O)C2(C(=O)NNC(=O)c3ccc4ccccc4c3)Cc3ccccc3C2)C(O)O1 (stereo not given in full)
≥ 10 | ≥ 10 | > 10 | ≥ 10 | COc1cccc(C(=O)NNC(=O)C2(C(=O)N[C@H]3CC(=O)OC3O)CC2)c1 (stereo not given in full)
